Where a name gives a salt, the structure may show the parent alone.
test system: not given; experiment: not given; settings: not given

Structure (SMILES) | melting point [°C]
O=C(NC(c1ccccc1)C1CCCC2CCCN21)c1cccc(C(F)(F)F)c1Cl (racemic) (as salt: HCl) [Compound 1, trans-threo-2-Chloro-N-[(octahydroindolizin-5-yl)phenylmethyl]-3-trifluoromethyl-benzamide hydrochloride 1:1] | 132 to 134
O=C(N[C@H](c1ccccc1)[C@@H]1CCC[C@H]2CCCN21)c1cccc(C(F)(F)F)c1Cl (racemic) (as salt: HCl) [Compound 2, trans-erythro-2-chloro-N-[(octahydroindolizin-5-yl)phenylmethyl]-3-trifluoromethyl-benzamide hydrochloride 1:1] | 132 to 134
O=C(NC(c1ccccc1)C1CCC2CCCCN21)c1cccc(C(F)(F)F)c1Cl (racemic) (as salt: HCl) [Compound 5, trans-threo-2-Chloro-N-[(octahydroindolizin-3-yl)phenylmethyl]-3-trifluoromethyl-benzamide hydrochloride 1.1] | 138 to 139

molecular target: T1, native human transporter GlyT1 (Homo sapiens, UniProt P48067); experiment: Uptake of [14C]glycine in SK-N-MC cells expressing the native human transporter GlyT1; format: cell-based; settings: 10 μM [14C]glycine, 10 min preincubation and 10 min incubation at 37° C., pH 7.4, read-out: IC50, the concentration of the compound which reduces by 50% the specific uptake of glycine
T1 construct: SK-N-MC cells (human neuroepithelial cells) expressing the native human transporter GlyT1; endogenous in cells; host or cells: SK-N-MC (human neuroepithelial cells)
T1 sequence (P48067 1-706): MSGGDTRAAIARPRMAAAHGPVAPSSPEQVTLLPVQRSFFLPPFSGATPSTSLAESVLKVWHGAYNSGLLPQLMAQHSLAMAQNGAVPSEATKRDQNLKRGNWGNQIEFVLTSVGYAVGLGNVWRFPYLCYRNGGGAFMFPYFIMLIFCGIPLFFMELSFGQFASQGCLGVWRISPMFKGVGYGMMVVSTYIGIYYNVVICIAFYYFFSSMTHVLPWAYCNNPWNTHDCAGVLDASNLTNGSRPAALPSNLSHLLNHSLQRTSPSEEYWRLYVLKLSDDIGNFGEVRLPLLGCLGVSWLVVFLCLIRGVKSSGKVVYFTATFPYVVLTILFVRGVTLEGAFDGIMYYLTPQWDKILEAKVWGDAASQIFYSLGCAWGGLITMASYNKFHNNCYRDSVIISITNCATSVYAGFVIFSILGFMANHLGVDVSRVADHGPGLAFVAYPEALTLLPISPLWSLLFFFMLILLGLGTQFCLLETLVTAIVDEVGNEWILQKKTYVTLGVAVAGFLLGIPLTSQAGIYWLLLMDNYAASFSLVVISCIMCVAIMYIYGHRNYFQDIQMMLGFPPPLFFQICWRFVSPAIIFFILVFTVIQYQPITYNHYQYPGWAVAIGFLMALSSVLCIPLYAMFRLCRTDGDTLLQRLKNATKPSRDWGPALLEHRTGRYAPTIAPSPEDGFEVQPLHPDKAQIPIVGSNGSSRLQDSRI
Procedure: Study of glycine transportation in SK-N-MC cells expressing the native human transporter GlyT1.
The uptake of [^14C]glycine is studied in SK-N-MC cells (human neuroepithelial cells) expressing the native human transporter GlyT1 by measuring the radioactivity incorporated in the presence or absence of the test compound. The cells are cultured as a monolayer for 48 hours in plates pretreated with 0.02% fibronectin. On the day of the experiment, the culture medium is removed and the cells are washed with Krebs-HEPES (4-(2-hydroxyethyl)piperazine-1-ethanesulphonic acid) buffer at pH 7.4. After preincubation for 10 minutes at 37° C. in the presence either of buffer (control batch) or of test compound at various concentrations or of 10 mM of glycine (determination of the non-specific uptake), 10 μM of [^14C]glycine (specific activity 112 mCi/mmol) are subsequently added. Incubation is continued for 10 min at 37° C. and the reaction is halted by washing twice with pH 7.4 Krebs-HEPES buffer. The radioactivity incorporated by the cells is then estimated after adding 100 μl of liquid scintillant and stirring for 1 h. Counting is carried out on a Microbeta Tri-Lux™ counter. The effectiveness of the compound is determined by the IC50, the concentration of the compound which reduces by 50% the specific uptake of glycine, defined by the difference in radioactivity incorporated by the control batch and the batch which received the 10 mM glycine.

Structure (SMILES) | IC50 [nM]
O=C(NC(c1ccccc1)C1CCCC2CCCN21)c1cccc(C(F)(F)F)c1Cl (racemic) [Compound 1, trans-threo-2-Chloro-N-[(octahydroindolizin-5-yl)phenylmethyl]-3-trifluoromethyl-benzamide hydrochloride 1:1] | 80
O=C(NC(c1ccccc1)C1CCC2CCCCN21)c1cccc(C(F)(F)F)c1Cl (racemic) [Compound 5, trans-threo-2-Chloro-N-[(octahydroindolizin-3-yl)phenylmethyl]-3-trifluoromethyl-benzamide hydrochloride 1.1] | 3
O=C(N[C@H](c1ccccc1)[C@@H]1CCC[C@H]2CCCN21)c1cccc(C(F)(F)F)c1Cl (racemic) [Compound 2, trans-erythro-2-chloro-N-[(octahydroindolizin-5-yl)phenylmethyl]-3-trifluoromethyl-benzamide hydrochloride 1:1] | 23
